Assay results reported in patent US20170157212A1, “CDK MODULATORS AND METHODS FOR THE TREATMENT OF CANCER” (Salk Institute for Biological Studies, priority 2015, published 2017).
“Also recorded” adds a separate entry of the source.

Key:
CDK12 = assay: Co-immunoprecipitation of CRIF1 with CDK12; assay type: binding, human; settings: native complexes
From the text: FIGS. 5A-5I. The Mitochondrial OX-PHOS Regulator, CRIF1, is a Novel Subunit of the Human CDK12 Kinase Complex. (A) Identification of CRIF1 as a near-stoichiometric subunit of the native CDK12 kinase complex. MudPIT analysis of CDK12 complexes from HEK293 cells that stably express HA-tagged full-length human CDK12. The HA-CDK12 complex was affinity-purified using anti-HA antibody and visualized by SDS-PAGE and silver-stain. (B) List of the identified proteins in the HA-CDK12 complex from (A). (C) Endogenous CRIF1 co-immunoprecipitates with native CDK12 in U2OS cell extracts. Shown is an immunoblot analysis of CRIF1, CCNK, and the chaperone proteins CDC37 and HSP90 in an anti-CDK12 immunoprecipitate. […] Native CRIF1 was immunoprecipitated from U2OS cells using an anti-CRIF1 antibody and analyzed by co-immunoprecipitation for association with various CDKs, as indicated. […] FLAG-CRIF1 proteins containing different C-terminal truncations were co-expressed with HA-CDK12 (aa 985-1490) and analyzed for binding by co-immunoprecipitation and immunoblot. […] Cell viability was analyzed after 72 hr. […] Expression of the mitochondrial MTCO-1 (COX1) protein was assessed using two different antisera. […] Each fraction (T; total, C:cytosolic, M:membrane/organelle, and N:nuclear) was analyzed by immunoblot using the indicated antibodies. […]
It was next evaluated how CRIF1 targets CDK12. […]

CDK2 = target: T1, CDK2 (Homo sapiens, UniProt P24941); assay: Co-immunoprecipitation of CRIF1 with CDK2; assay type: binding
T1 construct: endogenous in cells
From the text: (§1) FIGS. 5A-5I. The Mitochondrial OX-PHOS Regulator, CRIF1, is a Novel Subunit of the Human CDK12 Kinase Complex. (A) Identification of CRIF1 as a near-stoichiometric subunit of the native CDK12 kinase complex. MudPIT analysis of CDK12 complexes from HEK293 cells that stably express HA-tagged full-length human CDK12. The HA-CDK12 complex was affinity-purified using anti-HA antibody and visualized by SDS-PAGE and silver-stain. (B) List of the identified proteins in the HA-CDK12 complex from (A). (C) Endogenous CRIF1 co-immunoprecipitates with native CDK12 in U2OS cell extracts. Shown is an immunoblot analysis of CRIF1, CCNK, and the chaperone proteins CDC37 and HSP90 in an anti-CDK12 immunoprecipitate. (D) CRIF1 is a specific subunit of the CDK12 complex. Native CRIF1 was immunoprecipitated from U2OS cells using an anti-CRIF1 antibody and analyzed by co-immunoprecipitation for association with various CDKs, as indicated. […] FLAG-CRIF1 proteins containing different C-terminal truncations were co-expressed with HA-CDK12 (aa 985-1490) and analyzed for binding by co-immunoprecipitation and immunoblot. […] Cell viability was analyzed after 72 hr. […] Expression of the mitochondrial MTCO-1 (COX1) protein was assessed using two different antisera. […] Each fraction (T; total, C:cytosolic, M:membrane/organelle, and N:nuclear) was analyzed by immunoblot using the indicated antibodies. […]

CDK7 = target: T2, CDK7 (Homo sapiens, UniProt P50613); assay: Co-immunoprecipitation of CRIF1 with CDK7; assay type: binding
T2 construct: endogenous in cells
T2 sequence (P50613 whole entry): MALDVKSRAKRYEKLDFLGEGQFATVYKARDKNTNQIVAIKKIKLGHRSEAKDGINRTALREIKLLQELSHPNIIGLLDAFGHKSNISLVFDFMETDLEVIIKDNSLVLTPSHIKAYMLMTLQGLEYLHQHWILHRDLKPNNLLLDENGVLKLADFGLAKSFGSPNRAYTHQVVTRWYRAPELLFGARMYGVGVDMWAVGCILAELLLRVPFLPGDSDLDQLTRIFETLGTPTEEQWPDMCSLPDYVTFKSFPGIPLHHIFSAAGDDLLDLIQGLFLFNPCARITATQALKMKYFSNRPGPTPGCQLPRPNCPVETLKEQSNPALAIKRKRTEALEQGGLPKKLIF
From the text: as §1

CDK8 = target: T3, CDK8 (Homo sapiens, UniProt P49336); assay: Co-immunoprecipitation of CRIF1 with CDK8; assay type: binding
T3 construct: endogenous in cells
T3 sequence (P49336 whole entry): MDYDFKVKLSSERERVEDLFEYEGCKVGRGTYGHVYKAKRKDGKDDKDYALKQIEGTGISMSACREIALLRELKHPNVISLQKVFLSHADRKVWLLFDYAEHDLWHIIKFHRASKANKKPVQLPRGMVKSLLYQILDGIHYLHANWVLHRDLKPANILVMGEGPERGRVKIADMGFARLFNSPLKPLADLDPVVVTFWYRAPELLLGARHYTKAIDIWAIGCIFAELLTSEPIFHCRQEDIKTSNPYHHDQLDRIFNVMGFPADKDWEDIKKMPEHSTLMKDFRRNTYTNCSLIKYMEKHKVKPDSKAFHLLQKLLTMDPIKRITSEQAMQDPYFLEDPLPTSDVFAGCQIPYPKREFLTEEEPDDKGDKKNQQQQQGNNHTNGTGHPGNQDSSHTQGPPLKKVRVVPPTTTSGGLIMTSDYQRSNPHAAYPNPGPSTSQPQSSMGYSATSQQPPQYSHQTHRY
From the text: as §1

CDK12, sequence (Q9NYV4 whole entry): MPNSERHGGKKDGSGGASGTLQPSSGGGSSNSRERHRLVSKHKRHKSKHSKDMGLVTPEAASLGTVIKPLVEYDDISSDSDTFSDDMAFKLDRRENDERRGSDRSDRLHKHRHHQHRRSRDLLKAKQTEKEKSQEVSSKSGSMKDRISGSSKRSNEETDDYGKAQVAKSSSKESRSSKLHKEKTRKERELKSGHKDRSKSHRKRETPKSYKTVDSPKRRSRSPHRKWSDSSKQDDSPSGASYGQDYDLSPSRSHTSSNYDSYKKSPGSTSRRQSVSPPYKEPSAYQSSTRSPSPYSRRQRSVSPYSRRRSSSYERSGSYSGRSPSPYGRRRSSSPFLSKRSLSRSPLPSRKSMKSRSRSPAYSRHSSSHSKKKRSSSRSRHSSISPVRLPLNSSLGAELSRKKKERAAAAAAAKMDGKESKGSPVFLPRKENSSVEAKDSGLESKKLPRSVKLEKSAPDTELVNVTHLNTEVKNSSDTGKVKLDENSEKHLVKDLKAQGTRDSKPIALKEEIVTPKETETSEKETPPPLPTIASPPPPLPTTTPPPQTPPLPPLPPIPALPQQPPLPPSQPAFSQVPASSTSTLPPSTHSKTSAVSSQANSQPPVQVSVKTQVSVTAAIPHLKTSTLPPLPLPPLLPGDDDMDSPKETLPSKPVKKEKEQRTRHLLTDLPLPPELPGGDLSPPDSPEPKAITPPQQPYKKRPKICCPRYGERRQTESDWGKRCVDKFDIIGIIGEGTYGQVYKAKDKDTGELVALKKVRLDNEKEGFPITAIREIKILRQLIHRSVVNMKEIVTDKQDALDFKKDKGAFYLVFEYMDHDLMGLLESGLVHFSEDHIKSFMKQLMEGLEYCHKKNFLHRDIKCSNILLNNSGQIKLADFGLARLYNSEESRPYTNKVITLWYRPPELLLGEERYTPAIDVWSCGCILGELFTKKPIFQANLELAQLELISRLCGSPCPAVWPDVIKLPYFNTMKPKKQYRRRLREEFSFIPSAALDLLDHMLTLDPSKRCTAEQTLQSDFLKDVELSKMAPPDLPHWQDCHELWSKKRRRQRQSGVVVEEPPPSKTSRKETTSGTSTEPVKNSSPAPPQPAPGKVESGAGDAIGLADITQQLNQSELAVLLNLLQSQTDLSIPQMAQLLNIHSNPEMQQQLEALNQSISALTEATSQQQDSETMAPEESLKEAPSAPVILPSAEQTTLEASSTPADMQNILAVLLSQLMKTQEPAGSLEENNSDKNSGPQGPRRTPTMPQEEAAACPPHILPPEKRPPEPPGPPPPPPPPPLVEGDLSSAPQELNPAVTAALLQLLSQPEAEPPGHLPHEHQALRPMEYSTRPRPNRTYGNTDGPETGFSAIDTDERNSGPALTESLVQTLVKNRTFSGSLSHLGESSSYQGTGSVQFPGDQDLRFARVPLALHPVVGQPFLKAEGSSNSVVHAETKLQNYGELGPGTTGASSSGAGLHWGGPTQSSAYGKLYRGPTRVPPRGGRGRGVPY
CDK12, sequence (O75909 whole entry partner): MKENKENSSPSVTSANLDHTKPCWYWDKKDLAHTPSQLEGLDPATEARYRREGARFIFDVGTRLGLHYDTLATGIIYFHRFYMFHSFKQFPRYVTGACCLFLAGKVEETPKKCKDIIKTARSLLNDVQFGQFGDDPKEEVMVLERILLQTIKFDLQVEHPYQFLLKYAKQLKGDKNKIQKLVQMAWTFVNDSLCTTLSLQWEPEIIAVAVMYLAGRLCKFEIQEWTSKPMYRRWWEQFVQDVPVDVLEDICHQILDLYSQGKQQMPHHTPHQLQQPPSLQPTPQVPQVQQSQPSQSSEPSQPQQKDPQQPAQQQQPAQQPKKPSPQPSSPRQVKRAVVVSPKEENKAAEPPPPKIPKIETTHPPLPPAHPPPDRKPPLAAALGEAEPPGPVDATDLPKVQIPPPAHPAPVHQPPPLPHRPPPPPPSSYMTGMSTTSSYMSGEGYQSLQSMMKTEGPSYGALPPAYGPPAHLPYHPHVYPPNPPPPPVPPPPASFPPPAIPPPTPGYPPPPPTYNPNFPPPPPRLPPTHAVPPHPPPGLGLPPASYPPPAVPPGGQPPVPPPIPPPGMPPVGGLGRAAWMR

## Growth Arrest and DNA Damage-Inducible Proteins-Interacting Protein 1 [CRIF1]
CDK12
  presence of CRIF1 in CDK12 complexes: present
CDK2
  presence in / binding to CDK2 complexes: not present; also recorded: nor was binding to Cdk2 detected
CDK7
  presence in / binding to CDK7 complexes: not present; also recorded: does not bind
CDK8
  presence in / binding to CDK8 complexes: not present; also recorded: does not bind
